Test results: article PMC8954547, “Nonpeptidic Z360-Analogs Tagged with Trivalent Radiometals as Anti-CCK2R Cancer Theranostic Agents: A Preclinical Study” (Pharmaceutics, 2022)

Assays:
HEK293-CCK2i4svR cells = assay: Radioligand uptake and internalization in HEK293-CCK2i4svR cells; type: cell-based, human
In short: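 Cells incubated at 37 °C with 250 fmol radioligand in DMEM/1% FBS for 1 h ([111In]In-GAS1/2/3 also 15, 30 min, 2 h). Acid wash (glycine pH 2.8) gave membrane-bound and 1 N NaOH lysis gave internalized fractions, gamma-counted. Specific values (minus 1 µM DG2 nonspecific) as % of added activity per well.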

[1] = system: SCID mice bearing twin HEK293-CCK2i4svR and wtHEK293 tumors; assay: Biodistribution in SCID mice bearing twin HEK293-CCK2i4svR and wtHEK293 xenografts; type: in vivo
In short: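 Uptake is expressed as %IA/g (mean ± SD, n = 4) from gamma counting of blood, organs and tumours collected at set times: 1, 4 and 24 h pi for ^67Ga, 4 and 24 h for ^111In (±gelofusine), 4–96 h for ^177Lu. Radioligands were given iv at 7–40 pmol to SCID mice bearing twin CCK2i4svR-transfected and wild-type HEK293 xenografts.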

Q: For `CC(C)(C)C(=O)CN1C(=O)[C@H](NC(=O)Nc2cccc(C(=O)NCCOCCOCCOCCNC(=O)[C@H](CCC(=O)O)NC(=O)CCC(C(=O)O)N3CCN(CC(=O)[O-])CCN(CC(=O)[O-])CCN(CC(=O)[O-])CC3)c2)CN(C2CCCCC2)c2ccccc21.[177Lu+3]` (stereo in doubt) [[^177Lu]Lu-GAS3], which “Internalized to membrane-bound ratio” value (HEK293-CCK2i4svR cells) is on record?
A: The value was 2.8.

Q: What about the “Cell uptake (internalized + membrane-bound)” value (HEK293-CCK2i4svR cells; 1 h 37 °C, specific, of total added activity) of the same compound?
A: Its value is 7.65 ± 1.31%.

Q: And the “Tumor to kidney ratio” value ([1]; 96 pi)?
A: The value was 13.8.

Q: What about the “Biodistribution, Blood” value ([1]; 4 h pi) of the same compound?
A: The value was 3.19 ± 0.44 %IA/g.

Q: What about the “Biodistribution, CCK2i4svR(+) Tumor” value ([1]; 4 h pi) of the same compound?
A: Its value is 20.88 ± 1.20 %IA/g.

Q: And the “Biodistribution, CCK2i4svR(-) Tumor” value ([1]; 4 h pi)?
A: The value was 1.14 ± 0.50 %IA/g.

Q: What about the “Biodistribution, Femur” value ([1]; 4 h pi) of the same compound?
A: Its value is 0.60 ± 0.07 %IA/g.

Q: And the “Biodistribution, Heart” value ([1]; 4 h pi)?
A: Its value is 0.94 ± 0.21 %IA/g.

Q: What about the “Biodistribution, Intestines” value ([1]; 4 h pi) of the same compound?
A: The value was 1.85 ± 0.18 %IA/g.

Q: And the “Biodistribution, Kidneys” value ([1]; 4 h pi)?
A: The value was 8.86 ± 0.67 %IA/g.

Q: What about the “Biodistribution, Liver” value ([1]; 4 h pi) of the same compound?
A: Its value is 2.73 ± 0.31 %IA/g.

Q: What about the “Biodistribution, Lungs” value ([1]; 4 h pi) of the same compound?
A: The value was 1.94 ± 0.21 %IA/g.

Q: What about the “Biodistribution, Muscle” value ([1]; 4 h pi) of the same compound?
A: Its value is 0.31 ± 0.04 %IA/g.

Q: And the “Biodistribution, Pancreas” value ([1]; 4 h pi)?
A: The value was 1.00 ± 0.13 %IA/g.

Q: And the “Biodistribution, Spleen” value ([1]; 4 h pi)?
A: Its value is 1.19 ± 0.12 %IA/g.

Q: And the “Biodistribution, Stomach” value ([1]; 4 h pi)?
A: The value was 0.64 ± 0.07 %IA/g.

Q: What about the “Tumor to kidney ratio” value ([1]; 4 h pi) of the same compound?
A: The value was 2.4.

Q: And the “Biodistribution, Blood” value ([1]; 24 h pi)?
A: The value was 0.07 ± 0.01 %IA/g.

Q: What about the “Biodistribution, CCK2i4svR(+) Tumor” value ([1]; 24 h pi) of the same compound?
A: The value was 5.38 ± 0.77 %IA/g.

Q: What about the “Biodistribution, CCK2i4svR(-) Tumor” value ([1]; 24 h pi) of the same compound?
A: The value was 0.37 ± 0.12 %IA/g.

Q: What about the “Biodistribution, Femur” value ([1]; 24 h pi) of the same compound?
A: The value was 0.11 ± 0.02 %IA/g.

Q: What about the “Biodistribution, Heart” value ([1]; 24 h pi) of the same compound?
A: Its value is 0.08 ± 0.02 %IA/g.

Q: And the “Biodistribution, Intestines” value ([1]; 24 h pi)?
A: Its value is 0.17 ± 0.04 %IA/g.

Q: And the “Biodistribution, Kidneys” value ([1]; 24 h pi)?
A: Its value is 1.42 ± 0.29 %IA/g.

Q: What about the “Biodistribution, Liver” value ([1]; 24 h pi) of the same compound?
A: The value was 0.51 ± 0.05 %IA/g.

Q: What about the “Biodistribution, Lungs” value ([1]; 24 h pi) of the same compound?
A: The value was 0.26 ± 0.02 %IA/g.

Q: What about the “Biodistribution, Muscle” value ([1]; 24 h pi) of the same compound?
A: The value was 0.03 ± 0.01 %IA/g.

Q: What about the “Biodistribution, Pancreas” value ([1]; 24 h pi) of the same compound?
A: Its value is 0.07 ± 0.01 %IA/g.

Q: And the “Biodistribution, Spleen” value ([1]; 24 h pi)?
A: The value was 0.45 ± 0.05 %IA/g.

Q: What about the “Biodistribution, Stomach” value ([1]; 24 h pi) of the same compound?
A: Its value is 0.11 ± 0.01 %IA/g.

Q: And the “Tumor to kidney ratio” value ([1]; 24 h pi)?
A: Its value is 3.8.

Q: And the “Biodistribution, Blood” value ([1]; 48 h pi)?
A: Its value is 0.05 ± 0.01 %IA/g.

Q: What about the “Biodistribution, CCK2i4svR(+) Tumor” value ([1]; 48 h pi) of the same compound?
A: Its value is 3.39 ± 0.23 %IA/g.

Q: What about the “Biodistribution, CCK2i4svR(-) Tumor” value ([1]; 48 h pi) of the same compound?
A: The value was 0.25 ± 0.14 %IA/g.

Q: And the “Biodistribution, Femur” value ([1]; 48 h pi)?
A: Its value is 0.14 ± 0.04 %IA/g.

Q: What about the “Biodistribution, Heart” value ([1]; 48 h pi) of the same compound?
A: Its value is 0.08 ± 0.01 %IA/g.

Q: What about the “Biodistribution, Intestines” value ([1]; 48 h pi) of the same compound?
A: Its value is 0.07 ± 0.01 %IA/g.

Q: What about the “Biodistribution, Kidneys” value ([1]; 48 h pi) of the same compound?
A: Its value is 0.47 ± 0.07 %IA/g.

Q: And the “Biodistribution, Liver” value ([1]; 48 h pi)?
A: The value was 0.35 ± 0.09 %IA/g.

Q: And the “Biodistribution, Lungs” value ([1]; 48 h pi)?
A: The value was 0.18 ± 0.03 %IA/g.

Q: What about the “Biodistribution, Muscle” value ([1]; 48 h pi) of the same compound?
A: Its value is 0.04 ± 0.01 %IA/g.

Q: What about the “Biodistribution, Pancreas” value ([1]; 48 h pi) of the same compound?
A: The value was 0.08 ± 0.04 %IA/g.

Q: And the “Biodistribution, Spleen” value ([1]; 48 h pi)?
A: Its value is 0.43 ± 0.10 %IA/g.

Q: And the “Biodistribution, Stomach” value ([1]; 48 h pi)?
A: The value was 0.08 ± 0.01 %IA/g.

Q: And the “Biodistribution, Blood” value ([1]; 72 h pi)?
A: The value was 0.04 ± 0.00 %IA/g.

Q: What about the “Biodistribution, CCK2i4svR(+) Tumor” value ([1]; 72 h pi) of the same compound?
A: Its value is 1.99 ± 0.31 %IA/g.

Q: And the “Biodistribution, CCK2i4svR(-) Tumor” value ([1]; 72 h pi)?
A: The value was 0.13 ± 0.03 %IA/g.

Q: What about the “Biodistribution, Femur” value ([1]; 72 h pi) of the same compound?
A: Its value is 0.06 ± 0.00 %IA/g.

Q: What about the “Biodistribution, Heart” value ([1]; 72 h pi) of the same compound?
A: Its value is 0.04 ± 0.01 %IA/g.

Q: And the “Biodistribution, Intestines” value ([1]; 72 h pi)?
A: Its value is 0.04 ± 0.01 %IA/g.

Q: And the “Biodistribution, Kidneys” value ([1]; 72 h pi)?
A: The value was 0.17 ± 0.04 %IA/g.

Q: And the “Biodistribution, Liver” value ([1]; 72 h pi)?
A: Its value is 0.32 ± 0.02 %IA/g.

Q: What about the “Biodistribution, Lungs” value ([1]; 72 h pi) of the same compound?
A: The value was 0.15 ± 0.01 %IA/g.

Q: And the “Biodistribution, Muscle” value ([1]; 72 h pi)?
A: Its value is 0.03 ± 0.01 %IA/g.

Q: And the “Biodistribution, Pancreas” value ([1]; 72 h pi)?
A: Its value is 0.03 ± 0.01 %IA/g.

Q: What about the “Biodistribution, Spleen” value ([1]; 72 h pi) of the same compound?
A: Its value is 0.44 ± 0.07 %IA/g.

Q: What about the “Biodistribution, Stomach” value ([1]; 72 h pi) of the same compound?
A: The value was 0.06 ± 0.02 %IA/g.

Q: And the “Biodistribution, Blood” value ([1]; 96 h pi)?
A: The value was 0.04 ± 0.00 %IA/g.

Q: What about the “Biodistribution, CCK2i4svR(+) Tumor” value ([1]; 96 h pi) of the same compound?
A: Its value is 1.52 ± 0.43 %IA/g.

Q: What about the “Biodistribution, CCK2i4svR(-) Tumor” value ([1]; 96 h pi) of the same compound?
A: The value was 0.00 ± 0.04 %IA/g.

Q: And the “Biodistribution, Femur” value ([1]; 96 h pi)?
A: The value was 0.06 ± 0.00 %IA/g.

Q: What about the “Biodistribution, Heart” value ([1]; 96 h pi) of the same compound?
A: Its value is 0.03 ± 0.01 %IA/g.

Q: What about the “Biodistribution, Intestines” value ([1]; 96 h pi) of the same compound?
A: The value was 0.03 ± 0.01 %IA/g.

Q: What about the “Biodistribution, Kidneys” value ([1]; 96 h pi) of the same compound?
A: Its value is 0.11 ± 0.03 %IA/g.

Q: What about the “Biodistribution, Liver” value ([1]; 96 h pi) of the same compound?
A: Its value is 0.25 ± 0.02 %IA/g.

Q: And the “Biodistribution, Lungs” value ([1]; 96 h pi)?
A: The value was 0.14 ± 0.01 %IA/g.

Q: And the “Biodistribution, Muscle” value ([1]; 96 h pi)?
A: Its value is 0.01 ± 0.00 %IA/g.

Q: What about the “Biodistribution, Pancreas” value ([1]; 96 h pi) of the same compound?
A: Its value is 0.02 ± 0.00 %IA/g.

Q: What about the “Biodistribution, Spleen” value ([1]; 96 h pi) of the same compound?
A: Its value is 0.39 ± 0.02 %IA/g.

Q: And the “Biodistribution, Stomach” value ([1]; 96 h pi)?
A: The value was 0.04 ± 0.00 %IA/g.

Q: What about the “Background clearance / excretion route” value ([1]; mouse, in vivo) of the same compound?
A: Its value is “rapid background clearance predominantly via the kidneys”.
